Measurements from article PMC6332596 (Journal of Hematology & Oncology, 2019).
Entries after “also recorded” stand apart in the source; their conditions may differ. Where two headings read alike, the source gives them in different places.

What was measured:
[1] = test system: advanced solid tumor and lymphoma; test: Tumor response by RECIST 1.1 in patients; format: in vivo, human
Method: Tumor response was evaluated by the Response Evaluation Criteria in Solid Tumors (RECIST) version 1.1. Tumor response was assessed by computed tomography (CT) and/or magnetic resonance imaging (MRI) scans at screening and every 8 weeks (2 cycles) during the first 12 cycles.

Aurora B = test system: Aurora B; set-up: method as in PMID 28004478; conditions: cited from earlier work
[2] = Grade 1, worst grade per patient in all cycles, N = 18
[3] = Grade 2, worst grade per patient in all cycles, N = 18
[4] = Grade 3, worst grade per patient in all cycles, N = 18
[5] = Grade 4, worst grade per patient in all cycles, N = 18
[6] = Grade 5, worst grade per patient in all cycles, N = 18

COc1ccc2c(Oc3ccc4c(C(=O)Nc5ccccc5N)cccc4c3)ccnc2c1 [chiauranib]
patients achieving SD among six with prior anti-angiogenic agents ([1]; 6/18 patients pretreated with anti-angiogenic agents): five | stable disease (SD) as best response ([1]; 12 of 18 patients, investigator's assessment): 66.7% | complete or partial response ([1]; 18 patients): No complete or partial responses were observed; also recorded: No partial or complete response was observed | duration of confirmed SD ([1]; one patient with DLBCL, 10 mg cohort): 596 days | change in the sum of the longest diameters of target lesions at best response ([1]; one patient with ovarian cancer (65 mg cohort)): 22.2% | patients with DLT (grade 3 hypertension) (65 mg/day cohort (n = 4), cycle 1): two | serious adverse events (SAE) reported (20-mg dose level, death from pulmonary infection, assessed unlikely related): one | Treatment-related adverse event: ALT increased [2]: 2 (11.1) n (%) | Treatment-related adverse event: AST increased [2]: 3 (16.7) n (%) | Treatment-related adverse event: Abdominal pain [2]: 2 (11.1) n (%) | Treatment-related adverse event: Amylase increased [2]: 3 (16.7) n (%) | Treatment-related adverse event: Blood urea increased [2]: 2 (11.1) n (%) | Treatment-related adverse event: Conjugated bilirubin increased [2]: 5 (27.8) n (%) | Treatment-related adverse event: Decreased appetite [2]: 0 n (%) | Treatment-related adverse event: Diarrhea [2]: 2 (11.1) n (%) | Treatment-related adverse event: Dysphonia [2]: 2 (11.1) n (%) | Treatment-related adverse event: Fatigue [2]: 7 (38.9) n (%) | Treatment-related adverse event: Hematuria [2]: 7 (38.9) n (%) | Treatment-related adverse event: Hyperbilirubinemia [2]: 2 (11.1) n (%) | Treatment-related adverse event: Hypertension [2]: 3 (16.7) n (%) | Treatment-related adverse event: Hypertriglyceridemia [2]: 5 (27.8) n (%) | Treatment-related adverse event: Hypothyroidism [2]: 7 (38.9) n (%) | Treatment-related adverse event: Leucopenia [2]: 2 (11.1) n (%) | Treatment-related adverse event: Mouth ulceration [2]: 1 (5.6) n (%) | Treatment-related adverse event: Nausea [2]: 4 (22.2) n (%) | Treatment-related adverse event: Neutropenia [2]: 2 (11.1) n (%) | Treatment-related adverse event: Palmar-plantar erythrodysesthesia syndrome [2]: 1 (5.6) n (%) | Treatment-related adverse event: Proteinuria [2]: 8 (44.4) n (%) | Treatment-related adverse event: Rash [2]: 1 (5.6) n (%) | Treatment-related adverse event: Thrombocytopenia [2]: 2 (11.1) n (%) | Treatment-related adverse event: Unconjugated bilirubin increased [2]: 2 (11.1) n (%) | Treatment-related adverse event: Vaginal hemorrhage [2]: 2 (11.1) n (%) | Treatment-related adverse event: ALT increased [3]: 0 n (%) | Treatment-related adverse event: AST increased [3]: 0 n (%) | Treatment-related adverse event: Abdominal pain [3]: 0 n (%) | Treatment-related adverse event: Amylase increased [3]: 1 (5.6) n (%) | Treatment-related adverse event: Blood urea increased [3]: 0 n (%) | Treatment-related adverse event: Conjugated bilirubin increased [3]: 0 n (%) | Treatment-related adverse event: Decreased appetite [3]: 2 (11.1) n (%) | Treatment-related adverse event: Diarrhea [3]: 1 (5.6) n (%) | Treatment-related adverse event: Dysphonia [3]: 0 n (%) | Treatment-related adverse event: Fatigue [3]: 4 (22.2) n (%) | Treatment-related adverse event: Hematuria [3]: 0 n (%) | Treatment-related adverse event: Hyperbilirubinemia [3]: 0 n (%) | Treatment-related adverse event: Hypertension [3]: 1 (5.6) n (%) | Treatment-related adverse event: Hypertriglyceridemia [3]: 1 (5.6) n (%) | Treatment-related adverse event: Hypothyroidism [3]: 0 n (%) | Treatment-related adverse event: Leucopenia [3]: 1 (5.6) n (%) | Treatment-related adverse event: Mouth ulceration [3]: 1 (5.6) n (%) | Treatment-related adverse event: Nausea [3]: 0 n (%) | Treatment-related adverse event: Neutropenia [3]: 0 n (%) | Treatment-related adverse event: Palmar-plantar erythrodysesthesia syndrome [3]: 1 (5.6) n (%) | Treatment-related adverse event: Proteinuria [3]: 0 n (%) | Treatment-related adverse event: Rash [3]: 1 (5.6) n (%) | Treatment-related adverse event: Thrombocytopenia [3]: 0 n (%) | Treatment-related adverse event: Unconjugated bilirubin increased [3]: 0 n (%) | Treatment-related adverse event: Vaginal hemorrhage [3]: 0 n (%) | Treatment-related adverse event: ALT increased [4]: 0 n (%) | Treatment-related adverse event: AST increased [4]: 0 n (%) | Treatment-related adverse event: Abdominal pain [4]: 0 n (%) | Treatment-related adverse event: Amylase increased [4]: 0 n (%) | Treatment-related adverse event: Blood urea increased [4]: 0 n (%) | Treatment-related adverse event: Conjugated bilirubin increased [4]: 0 n (%) | Treatment-related adverse event: Decreased appetite [4]: 0 n (%) | Treatment-related adverse event: Diarrhea [4]: 0 n (%) | Treatment-related adverse event: Dysphonia [4]: 0 n (%) | Treatment-related adverse event: Fatigue [4]: 0 n (%) | Treatment-related adverse event: Hematuria [4]: 0 n (%) | Treatment-related adverse event: Hyperbilirubinemia [4]: 0 n (%) | Treatment-related adverse event: Hypertension [4]: 2 (11.1) n (%) | Treatment-related adverse event: Hypertriglyceridemia [4]: 0 n (%) | Treatment-related adverse event: Hypothyroidism [4]: 0 n (%) | Treatment-related adverse event: Leucopenia [4]: 0 n (%) | Treatment-related adverse event: Mouth ulceration [4]: 0 n (%) | Treatment-related adverse event: Nausea [4]: 0 n (%) | Treatment-related adverse event: Neutropenia [4]: 2 (11.1) n (%) | Treatment-related adverse event: Palmar-plantar erythrodysesthesia syndrome [4]: 0 n (%) | Treatment-related adverse event: Proteinuria [4]: 0 n (%) | Treatment-related adverse event: Rash [4]: 0 n (%) | Treatment-related adverse event: Thrombocytopenia [4]: 0 n (%) | Treatment-related adverse event: Unconjugated bilirubin increased [4]: 0 n (%) | Treatment-related adverse event: Vaginal hemorrhage [4]: 0 n (%) | Treatment-related adverse event: ALT increased [5]: 0 n (%) | Treatment-related adverse event: AST increased [5]: 0 n (%) | Treatment-related adverse event: Abdominal pain [5]: 0 n (%) | Treatment-related adverse event: Amylase increased [5]: 0 n (%) | Treatment-related adverse event: Blood urea increased [5]: 0 n (%) | Treatment-related adverse event: Conjugated bilirubin increased [5]: 0 n (%) | Treatment-related adverse event: Decreased appetite [5]: 0 n (%) | Treatment-related adverse event: Diarrhea [5]: 0 n (%) | Treatment-related adverse event: Dysphonia [5]: 0 n (%) | Treatment-related adverse event: Fatigue [5]: 0 n (%) | Treatment-related adverse event: Hematuria [5]: 0 n (%) | Treatment-related adverse event: Hyperbilirubinemia [5]: 0 n (%) | Treatment-related adverse event: Hypertension [5]: 0 n (%) | Treatment-related adverse event: Hypertriglyceridemia [5]: 0 n (%) | Treatment-related adverse event: Hypothyroidism [5]: 0 n (%) | Treatment-related adverse event: Leucopenia [5]: 0 n (%) | Treatment-related adverse event: Mouth ulceration [5]: 0 n (%) | Treatment-related adverse event: Nausea [5]: 0 n (%) | Treatment-related adverse event: Neutropenia [5]: 0 n (%) | Treatment-related adverse event: Palmar-plantar erythrodysesthesia syndrome [5]: 0 n (%) | Treatment-related adverse event: Proteinuria [5]: 0 n (%) | Treatment-related adverse event: Rash [5]: 0 n (%) | Treatment-related adverse event: Thrombocytopenia [5]: 0 n (%) | Treatment-related adverse event: Unconjugated bilirubin increased [5]: 0 n (%) | Treatment-related adverse event: Vaginal hemorrhage [5]: 0 n (%) | Treatment-related adverse event: ALT increased [6]: 0 n (%) | Treatment-related adverse event: AST increased [6]: 0 n (%) | Treatment-related adverse event: Abdominal pain [6]: 0 n (%) | Treatment-related adverse event: Amylase increased [6]: 0 n (%) | Treatment-related adverse event: Blood urea increased [6]: 0 n (%) | Treatment-related adverse event: Conjugated bilirubin increased [6]: 0 n (%) | Treatment-related adverse event: Decreased appetite [6]: 0 n (%) | Treatment-related adverse event: Diarrhea [6]: 0 n (%) | Treatment-related adverse event: Dysphonia [6]: 0 n (%) | Treatment-related adverse event: Fatigue [6]: 0 n (%) | Treatment-related adverse event: Hematuria [6]: 0 n (%) | Treatment-related adverse event: Hyperbilirubinemia [6]: 0 n (%) | Treatment-related adverse event: Hypertension [6]: 0 n (%) | Treatment-related adverse event: Hypertriglyceridemia [6]: 0 n (%) | Treatment-related adverse event: Hypothyroidism [6]: 0 n (%) | Treatment-related adverse event: Leucopenia [6]: 0 n (%) | Treatment-related adverse event: Mouth ulceration [6]: 0 n (%) | Treatment-related adverse event: Nausea [6]: 0 n (%) | Treatment-related adverse event: Neutropenia [6]: 0 n (%) | Treatment-related adverse event: Palmar-plantar erythrodysesthesia syndrome [6]: 0 n (%) | Treatment-related adverse event: Proteinuria [6]: 0 n (%) | Treatment-related adverse event: Rash [6]: 0 n (%) | Treatment-related adverse event: Thrombocytopenia [6]: 0 n (%) | Treatment-related adverse event: Unconjugated bilirubin increased [6]: 0 n (%) | Treatment-related adverse event: Vaginal hemorrhage [6]: 0 n (%) | treatment-related AE exceeding grade 3 (N = 18): No treatment-related AE exceeded grade 3 was observed | treatment-related deaths (N = 18): No treatment-related deaths occurred | treatment-related fatigue, irrespective of grade (N = 18): 61.1% | treatment-related grade 3 hyperglycemia (N = 18): one | treatment-related grade 3 hypertension (N = 18): two | treatment-related grade 3 neutropenia (N = 18): two | treatment-related hematuria, irrespective of grade (N = 18): 38.9% | treatment-related hypertension, irrespective of grade (N = 18): 33.3% | treatment-related hypertriglyceridemia, irrespective of grade (N = 18): 33.3% | treatment-related hypothyroidism, irrespective of grade (N = 18): 38.9% | treatment-related proteinuria, irrespective of grade (N = 18): 44.4% | patients with at least one AE (N = 18, all dose levels): 18 patients | patients with at least one treatment-related AE (N = 18, all dose levels): 94.4% | Treatment-related adverse event: ALT increased (Total, all cycles, N = 18): 2 (11.1) n (%) | Treatment-related adverse event: AST increased (Total, all cycles, N = 18): 3 (16.7) n (%) | Treatment-related adverse event: Abdominal pain (Total, all cycles, N = 18): 2 (11.1) n (%) | Treatment-related adverse event: Amylase increased (Total, all cycles, N = 18): 4 (22.2) n (%) | Treatment-related adverse event: Blood urea increased (Total, all cycles, N = 18): 2 (11.1) n (%) | Treatment-related adverse event: Conjugated bilirubin increased (Total, all cycles, N = 18): 5 (27.8) n (%) | Treatment-related adverse event: Decreased appetite (Total, all cycles, N = 18): 2 (11.1) n (%) | Treatment-related adverse event: Diarrhea (Total, all cycles, N = 18): 3 (16.7) n (%) | Treatment-related adverse event: Dysphonia (Total, all cycles, N = 18): 2 (11.1) n (%) | Treatment-related adverse event: Fatigue (Total, all cycles, N = 18): 11 (61.1) n (%) | Treatment-related adverse event: Hematuria (Total, all cycles, N = 18): 7 (38.9) n (%) | Treatment-related adverse event: Hyperbilirubinemia (Total, all cycles, N = 18): 2 (11.1) n (%) | Treatment-related adverse event: Hypertension (Total, all cycles, N = 18): 6 (33.3) n (%) | Treatment-related adverse event: Hypertriglyceridemia (Total, all cycles, N = 18): 6 (33.3) n (%) | Treatment-related adverse event: Hypothyroidism (Total, all cycles, N = 18): 7 (38.9) n (%) | Treatment-related adverse event: Leucopenia (Total, all cycles, N = 18): 3 (16.7) n (%) | Treatment-related adverse event: Mouth ulceration (Total, all cycles, N = 18): 2 (11.1) n (%) | Treatment-related adverse event: Nausea (Total, all cycles, N = 18): 4 (22.2) n (%) | Treatment-related adverse event: Neutropenia (Total, all cycles, N = 18): 4 (22.2) n (%) | Treatment-related adverse event: Palmar-plantar erythrodysesthesia syndrome (Total, all cycles, N = 18): 2 (11.1) n (%) | Treatment-related adverse event: Proteinuria (Total, all cycles, N = 18): 8 (44.4) n (%) | Treatment-related adverse event: Rash (Total, all cycles, N = 18): 2 (11.1) n (%) | Treatment-related adverse event: Thrombocytopenia (Total, all cycles, N = 18): 2 (11.1) n (%) | Treatment-related adverse event: Unconjugated bilirubin increased (Total, all cycles, N = 18): 2 (11.1) n (%) | Treatment-related adverse event: Vaginal hemorrhage (Total, all cycles, N = 18): 2 (11.1) n (%) | MTD (administered orally once daily): 50 mg | recommended phase II dose (RP2D) (administered orally once daily, monotherapy): 50 mg | maximum tolerated dose (MTD) (patients, oral once daily, 28-day cycles): 50 mg/day | IC50 (Aurora B): single-digit nanomolar range
